Test results as given in US20250325517A1, “ORAL DOSAGE FORMS OF ELRAGLUSIB” (Actuate Therapeutics, Inc., priority 2022, published 2025).
Values after ≈ are worked out from the molar mass of the structure shown.

Columns and labels:
Type in all cases: physicochemical
[1] = Photo-Chamber Study 1 (10FV, 50FV, 50V7; visible and UV light)
Source text: The photo-chamber and ambient light studies used a RP-HPLC method to monitor the following: • elraglusib concentration and % LC • elraglusib main peak Area % • elraglusib RelS1, elraglusib RelS2, and elraglusib Anhydride peak Area % values.
The three solutions were maintained in both 5-mL glass serum vials and UV-transparent plastic cuvettes (each with and without foil overwrap) and exposed to fractions (approximately 0, 25, 50, 75, and 100%) of ICH Q1B photostability conditions (1200 klux-hr in the visible region and 200 watt-h/m^2 in the UV region) using a calibrated photo-chamber.

[2] = Solubility of elraglusib in simulated intestinal fluid
Description: Solubility of elraglusib in simulated intestinal fluid with varying levels of SIF powder was measured to support formulation development, facilitate interpretation of in vitro dissolution, and support potential modeling and interpretation of in vivo pharmacokinetic data. The obtained solubility data are shown in Table 6-19 and is generally aligned with data previously collected for elraglusib.

[3] = Solubility of elraglusib in acetone, acetone:water and THF with and without polymers (24 h, visual and HPLC); conditions: for time to precipitation when agitated: ~4% w/w solids; for visual observation: stirred
Description: The solubility of elraglusib API with and without polymers of interest was evaluated in acetone. […] Samples were prepared according to Table 6-13. […] Additional studies were performed to determine if an increased water content would prevent formation of the solvate precipitate and more dilute solutions were tested for potential ASD processing.

[4] = Quantitative solubility by HPLC in organic solvents and surfactants; conditions: for solubility: thermodynamic from solid, read-out: Solubility (n = 2) by HPLC
Source text: The HPLC method 1 was used for solubility, stability monitoring at 438 nm, and drug loading measurements of the ASD is summarized in Table 2A-31 and the HPLC method 2 was used for stability monitoring at 210 nm, which is summarized in Table 2A-32.

photo-conversion rate, visible light compared with UV light ([1]; vials and cuvettes): approximately 5 times
% LC photo-conversion rate in vials (no foil) as % of rate in cuvettes (no foil) ([1]; visible light): approximately 60%
Average Concentration, 2 hour ([2]; 0.01N HCl, initial pH 2, [NaTC] 0 mM, 2 hour): 2.1 µg/mL
Average Concentration, 24 hour ([2]; 0.01N HCl, initial pH 2, [NaTC] 0 mM): 1.4 µg/mL
Average Concentration, 2 hour ([2]; 0.5% Simulated Intestinal Fluid (SIF), initial pH 6.5, [NaTC] 6.7 mM, 2 hour): 6.0 µg/mL
Average Concentration, 24 hour ([2]; 0.5% Simulated Intestinal Fluid (SIF), initial pH 6.5, [NaTC] 6.7 mM): 4.7 µg/mL
Average Concentration, 2 hour ([2]; 2% SIF, initial pH 6.5, [NaTC] 26.8 mM, 2 hour): 17.0 µg/mL
Average Concentration, 24 hour ([2]; 2% SIF, initial pH 6.5, [NaTC] 26.8 mM): 17.3 µg/mL
Average Concentration, 2 hour ([2]; Blank FaSSIF, initial pH 6.5, [NaTC] 0 mM, 2 hour): 2.5 µg/mL
Average Concentration, 24 hour ([2]; Blank FaSSIF, initial pH 6.5, [NaTC] 0 mM): 2.6 µg/mL
Average Concentration, 2 hour ([2]; Blank FeSSIF, initial pH 5, [NaTC] 0 mM, 2 hour): 2.4 µg/mL
Average Concentration, 24 hour ([2]; Blank FeSSIF, initial pH 5, [NaTC] 0 mM): 2.6 µg/mL
Average Concentration, 24 hour ([2]; FaSSIF, initial pH 6.5, [NaTC] 3 mM): 5.7 µg/mL
solubility ([2]; FaSSIF, pH 6.5, fassif, thermodynamic from solid, read-out: measured solubility of crystalline elraglusib): 0.0057 mg/mL (≈ 0.0141 mM)
Average Concentration, 2 hour ([2]; FeSSIF, initial pH 5, [NaTC] 15 mM, 2 hour): 8.4 µg/mL
Average Concentration, 24 hour ([2]; FeSSIF, initial pH 5, [NaTC] 15 mM): 11.6 µg/mL
pH dependence of equilibrium solubility ([2]; simulated intestinal fluid): essentially independent of pH
solubility thermodynamic at 2 h ([2]; thermodynamic from solid, FaSSIF, initial pH 6.5, [NaTC] 3 mM, 2 hour, read-out: Average Concentration, 2 hour): 0.0052 mg/mL (≈ 0.0129 mM)
time remaining soluble ([3]; 1.5-2.0% w/w in 95:5 acetone:water): over 24 hours
time to precipitation when agitated ([3]; 90:10 acetone:water): 3.5 h
time to precipitation when agitated ([3]; 95:5 acetone:water): 2 h
visual observation ([3]; Table 6-14 Sample 1: 4.02% w/w in Acetone, 30 min): Translucent
visual observation ([3]; Table 6-14 Sample 1: 4.02% w/w in Acetone, 1 hour): Translucent
visual observation ([3]; Table 6-14 Sample 1: 4.02% w/w in Acetone, 2 hours): Precipitation
visual observation ([3]; Table 6-14 Sample 1: 4.02% w/w in Acetone, 4 hours): No change
visual observation ([3]; Table 6-14 Sample 1: 4.02% w/w in Acetone, 8 hours): No change
visual observation ([3]; Table 6-14 Sample 1: 4.02% w/w in Acetone, 24 hours): No change
visual observation ([3]; Table 6-14 Sample 2: 4.02% w/w in THF, 30 min): Translucent
visual observation ([3]; Table 6-14 Sample 2: 4.02% w/w in THF, 1 hour): Translucent
visual observation ([3]; Table 6-14 Sample 2: 4.02% w/w in THF, 2 hours): Translucent
visual observation ([3]; Table 6-14 Sample 2: 4.02% w/w in THF, 4 hours): Translucent
visual observation ([3]; Table 6-14 Sample 2: 4.02% w/w in THF, 8 hours): Translucent
visual observation ([3]; Table 6-14 Sample 2: 4.02% w/w in THF, 24 hours): Translucent
visual observation ([3]; Table 6-14 Sample 3: 4.02% w/w in 95:5 Acetone:Water, 30 min): Translucent
visual observation ([3]; Table 6-14 Sample 3: 4.02% w/w in 95:5 Acetone:Water, 1 hour): Translucent
visual observation ([3]; Table 6-14 Sample 3: 4.02% w/w in 95:5 Acetone:Water, 2 hours): Precipitation
visual observation ([3]; Table 6-14 Sample 3: 4.02% w/w in 95:5 Acetone:Water, 4 hours): No change
visual observation ([3]; Table 6-14 Sample 3: 4.02% w/w in 95:5 Acetone:Water, 8 hours): No change
visual observation ([3]; Table 6-14 Sample 3: 4.02% w/w in 95:5 Acetone:Water, 24 hours): No change
visual observation ([3]; Table 6-14 Sample 4: 3.96% w/w API in Acetone with HPMCAS-MG (7.96% w/w total solids), 30 min): Hazy
visual observation ([3]; Table 6-14 Sample 4: 3.96% w/w API in Acetone with HPMCAS-MG (7.96% w/w total solids), 1 hour): Hazy
visual observation ([3]; Table 6-14 Sample 4: 3.96% w/w API in Acetone with HPMCAS-MG (7.96% w/w total solids), 2 hours): Hazy but no
visual observation ([3]; Table 6-14 Sample 4: 3.96% w/w API in Acetone with HPMCAS-MG (7.96% w/w total solids), 4 hours): Precipitation
visual observation ([3]; Table 6-14 Sample 4: 3.96% w/w API in Acetone with HPMCAS-MG (7.96% w/w total solids), 8 hours): No change
visual observation ([3]; Table 6-14 Sample 4: 3.96% w/w API in Acetone with HPMCAS-MG (7.96% w/w total solids), 24 hours): No change
visual observation ([3]; Table 6-17 Sample 1: 3.99% w/w in 90:10 acetone:water, 30 min): Translucent
visual observation ([3]; Table 6-17 Sample 1: 3.99% w/w in 90:10 acetone:water, 1 hour): Translucent
visual observation ([3]; Table 6-17 Sample 1: 3.99% w/w in 90:10 acetone:water, 2 hours): Translucent
visual observation ([3]; Table 6-17 Sample 1: 3.99% w/w in 90:10 acetone:water, 3.5 hours): Precipitation
visual observation ([3]; Table 6-17 Sample 1: 3.99% w/w in 90:10 acetone:water, 4 hours): No change
visual observation ([3]; Table 6-17 Sample 1: 3.99% w/w in 90:10 acetone:water, 21.5 hours): No change
visual observation ([3]; Table 6-17 Sample 2: 3.99% w/w in 95:5 acetone:water, 30 min): Translucent
visual observation ([3]; Table 6-17 Sample 2: 3.99% w/w in 95:5 acetone:water, 1 hour): Translucent
visual observation ([3]; Table 6-17 Sample 2: 3.99% w/w in 95:5 acetone:water, 2 hours): Precipitation
visual observation ([3]; Table 6-17 Sample 2: 3.99% w/w in 95:5 acetone:water, 3.5 hours): No change
visual observation ([3]; Table 6-17 Sample 2: 3.99% w/w in 95:5 acetone:water, 4 hours): No change
visual observation ([3]; Table 6-17 Sample 2: 3.99% w/w in 95:5 acetone:water, 21.5 hours): No change
visual observation ([3]; Table 6-17 Sample 3: 2.04% w/w in 95:5 acetone:water, 30 min): Translucent
visual observation ([3]; Table 6-17 Sample 3: 2.04% w/w in 95:5 acetone:water, 1 hour): No change
visual observation ([3]; Table 6-17 Sample 3: 2.04% w/w in 95:5 acetone:water, 2 hours): No change
visual observation ([3]; Table 6-17 Sample 3: 2.04% w/w in 95:5 acetone:water, 3.5 hours): No change
visual observation ([3]; Table 6-17 Sample 3: 2.04% w/w in 95:5 acetone:water, 4 hours): No change
visual observation ([3]; Table 6-17 Sample 3: 2.04% w/w in 95:5 acetone:water, 21.5 hours): No change
visual observation ([3]; Table 6-17 Sample 4: 1.84% w/w in 95:5 acetone:water, 30 min): Translucent
visual observation ([3]; Table 6-17 Sample 4: 1.84% w/w in 95:5 acetone:water, 1 hour): No change
visual observation ([3]; Table 6-17 Sample 4: 1.84% w/w in 95:5 acetone:water, 2 hours): No change
visual observation ([3]; Table 6-17 Sample 4: 1.84% w/w in 95:5 acetone:water, 3.5 hours): No change
visual observation ([3]; Table 6-17 Sample 4: 1.84% w/w in 95:5 acetone:water, 4 hours): No change
visual observation ([3]; Table 6-17 Sample 4: 1.84% w/w in 95:5 acetone:water, 21.5 hours): No change
visual observation ([3]; Table 6-17 Sample 5: 1.54% w/w in 95:5 acetone:water, 30 min): Translucent
visual observation ([3]; Table 6-17 Sample 5: 1.54% w/w in 95:5 acetone:water, 1 hour): No change
visual observation ([3]; Table 6-17 Sample 5: 1.54% w/w in 95:5 acetone:water, 2 hours): No change
visual observation ([3]; Table 6-17 Sample 5: 1.54% w/w in 95:5 acetone:water, 3.5 hours): No change
visual observation ([3]; Table 6-17 Sample 5: 1.54% w/w in 95:5 acetone:water, 4 hours): No change
visual observation ([3]; Table 6-17 Sample 5: 1.54% w/w in 95:5 acetone:water, 21.5 hours): No change
solubility in acetone ([3]; crystallizes at room temperature at static conditions): 4 % w/w
solubility at 24 h ([3]; organic solvent or mixture, thermodynamic from solid, acetone, 24 hours, read-out: measured solubility by HPLC): 13.1 mg/mL (≈ 32.3 mM)
solubility ([4]; DCM, no surfactant, organic solvent or mixture): 15.1 mg/mL (≈ 37.3 mM)
solubility ([4]; H2O with Kolliphor EL 10% w/v, aqueous with cosolvent or surfactant or cyclodextrin, H2O, Kolliphor EL 10% w/v): 0.12 mg/mL (≈ 0.297 mM)
solubility ([4]; H2O with Labrasol 10% w/v, aqueous with cosolvent or surfactant or cyclodextrin, H2O, Labrasol 10% w/v): 0.16 mg/mL (≈ 0.396 mM)
solubility ([4]; H2O with Tween 80 10% w/v, aqueous with cosolvent or surfactant or cyclodextrin, H2O, Tween 80 10% w/v): 0.24 mg/mL (≈ 0.594 mM)
solubility ([4]; THF (with stabilizer BHT), no surfactant, organic solvent or mixture): 25.3 mg/mL (≈ 62.5 mM)
solubility ([4]; THF with Kolliphor HS 15 10% w/v, organic solvent or mixture, THF, Kolliphor HS 15 10% w/v): 47.6 mg/mL (≈ 118 mM)
solubility ([4]; THF with Labrasol 10% w/v, organic solvent or mixture, THF, Labrasol 10% w/v): 52.3 mg/mL (≈ 129 mM)
solubility ([4]; THF with Poloxamer P188 10% w/v, organic solvent or mixture, THF, Poloxamer P188 10% w/v): 49.8 mg/mL (≈ 123 mM)
solubility ([4]; THF with TPGS 10% w/v, organic solvent or mixture, THF, TPGS 10% w/v): 46.8 mg/mL (≈ 116 mM)
solubility ([4]; THF with Tween 80 10% w/v, organic solvent or mixture, THF, Tween 80 10% w/v): 49.8 mg/mL (≈ 123 mM)
Solubility (n = 2) by HPLC ([4]; THF, Kolliphor EL 10% w/v): 48.0 mg/mL (≈ 119 mM)
Solubility (n = 2) by HPLC ([4]; THF, no surfactant): 52.7 mg/mL (≈ 130 mM)
solubility ([4]; THF:H2O (90:10) with Labrasol 10% w/v, organic solvent or mixture, THF:H2O (90:10), Labrasol 10% w/v): 54.8 mg/mL (≈ 136 mM)
Solubility (n = 2) by HPLC ([4]; THF:H2O (90:10), no surfactant): 61.2 mg/mL (≈ 151 mM)
solubility ([4]; acetone, no surfactant, organic solvent or mixture): 13 mg/mL (≈ 32.2 mM)
solubility ([4]; organic solvent or mixture, DCM:Acetone (1:1), no surfactant): 19.8 mg/mL (≈ 49 mM)
solubility ([4]; organic solvent or mixture, DCM:Acetone (5:1), no surfactant): 24.5 mg/mL (≈ 60.5 mM)
solubility ([4]; organic solvent or mixture, DCM:EtOH (1:1), no surfactant): 16.4 mg/mL (≈ 40.6 mM)
solubility ([4]; organic solvent or mixture, DCM:MeOH (8:2), no surfactant): 11.8 mg/mL (≈ 29.1 mM)
SMILES: Cn1cc(C2=C(c3coc4ccc(F)cc34)C(=O)NC2=O)c2cc3c(cc21)OCO3 [elraglusib, 3-(5-fluorobenzofuran-3-yl)-4-(5-methyl-5H-[1,3]dioxolo[4,5-f]indol-7-yl)-1H-pyrrole-2,5-dione]
% LC loss rate relative to main peak Area % loss rate ([1]; photo-exposure): approximately 6 times
